# From ChEMBL document CHEMBL4020824, “Discovery of Potent and Orally Bioavailable Dihydropyrazole GPR40 Agonists” (J Med Chem, 2018)
# The source made the active and inactive calls. The rule behind the calls is not given here.
# How the values were obtained:
# [1] = Half life in CD1 mouse at 1 mg/kg, iv administered as bolus dose or 1 mg/kg, po administered as single dose measured up to 24 hrs post dose by LC-MS/MS analysis; format: ADME, organism-based; details: in vivo
# [2] = Cmax in Sprague-Dawley rat at 3 mg/kg, po administered as single dose measured up to 24 hrs post dose by LC-MS/MS analysis; format: ADME, organism-based; parameters: dose 3 mg/kg, route oral; details: in vivo
# [3] = Half life in Sprague-Dawley rat at 1 mg/kg, iv administered as single dose measured up to 24 hrs post dose by LC-MS/MS analysis; format: ADME, organism-based; details: in vivo
# [4] = Cmax in Beagle dog at 1 mg/kg, po administered as single dose measured up to 24 hrs post dose by LC-MS/MS analysis; format: ADME, organism-based, Canis lupus familiaris; parameters: dose 1 mg/kg, route oral; details: in vivo
# [5] = Tmax in Beagle dog at 1 mg/kg, po administered as single dose measured up to 24 hrs post dose by LC-MS/MS analysis; format: ADME, organism-based, Canis lupus familiaris; details: in vivo
# [6] = Cmax in cynomolgus monkey at 1 mg/kg, po administered as single dose measured up to 24 hrs post dose by LC-MS/MS analysis; format: ADME, organism-based, Macaca fascicularis; parameters: dose 1 mg/kg, route oral; details: in vivo
# Mus musculus [7] = experiment: Antidiabetic activity in C57BL/6J mouse assessed as glucose lowering effect at 0.1 mg/kg, po administered 1 hr prior to glucose challenge measured after 120 mins by IPGTT; format: functional, organism-based
# Mus musculus [8] = experiment: Antidiabetic activity in C57BL/6J mouse assessed as reduction in plasma glucose excursion at 3 mg/kg, po administered 1 hr prior to glucose challenge measured after 120 mins by OGTT assay; format: functional, organism-based
# Mus musculus [9] = experiment: Antidiabetic activity in C57BL/6J mouse assessed as increase in active GLP-1 levels at 3 mg/kg, po administered 1 hr prior to glucose challenge measured after 120 mins in presence of DPP4 inhibitor BMS-538305 during OGTT assay by ELISA; format: functional, organism-based
# [10] = target: Voltage-gated inwardly rectifying potassium channel KCNH2 (Homo sapiens, UniProt Q12809); experiment: Inhibition of human ERG (unknown origin) at <10 uM
# Mus musculus [11] = experiment: Toxicity in C57BL/6J mouse assessed as induction of hypoglycemia effect at 1 mg/kg, po administered 1 hr prior to glucose challenge measured after 120 mins by IPGTT; format: organism-based; details: in vivo, 2 h
# Voltage-gated inwardly rectifying potassium channel KCNH2, sequence (Q12809 whole entry): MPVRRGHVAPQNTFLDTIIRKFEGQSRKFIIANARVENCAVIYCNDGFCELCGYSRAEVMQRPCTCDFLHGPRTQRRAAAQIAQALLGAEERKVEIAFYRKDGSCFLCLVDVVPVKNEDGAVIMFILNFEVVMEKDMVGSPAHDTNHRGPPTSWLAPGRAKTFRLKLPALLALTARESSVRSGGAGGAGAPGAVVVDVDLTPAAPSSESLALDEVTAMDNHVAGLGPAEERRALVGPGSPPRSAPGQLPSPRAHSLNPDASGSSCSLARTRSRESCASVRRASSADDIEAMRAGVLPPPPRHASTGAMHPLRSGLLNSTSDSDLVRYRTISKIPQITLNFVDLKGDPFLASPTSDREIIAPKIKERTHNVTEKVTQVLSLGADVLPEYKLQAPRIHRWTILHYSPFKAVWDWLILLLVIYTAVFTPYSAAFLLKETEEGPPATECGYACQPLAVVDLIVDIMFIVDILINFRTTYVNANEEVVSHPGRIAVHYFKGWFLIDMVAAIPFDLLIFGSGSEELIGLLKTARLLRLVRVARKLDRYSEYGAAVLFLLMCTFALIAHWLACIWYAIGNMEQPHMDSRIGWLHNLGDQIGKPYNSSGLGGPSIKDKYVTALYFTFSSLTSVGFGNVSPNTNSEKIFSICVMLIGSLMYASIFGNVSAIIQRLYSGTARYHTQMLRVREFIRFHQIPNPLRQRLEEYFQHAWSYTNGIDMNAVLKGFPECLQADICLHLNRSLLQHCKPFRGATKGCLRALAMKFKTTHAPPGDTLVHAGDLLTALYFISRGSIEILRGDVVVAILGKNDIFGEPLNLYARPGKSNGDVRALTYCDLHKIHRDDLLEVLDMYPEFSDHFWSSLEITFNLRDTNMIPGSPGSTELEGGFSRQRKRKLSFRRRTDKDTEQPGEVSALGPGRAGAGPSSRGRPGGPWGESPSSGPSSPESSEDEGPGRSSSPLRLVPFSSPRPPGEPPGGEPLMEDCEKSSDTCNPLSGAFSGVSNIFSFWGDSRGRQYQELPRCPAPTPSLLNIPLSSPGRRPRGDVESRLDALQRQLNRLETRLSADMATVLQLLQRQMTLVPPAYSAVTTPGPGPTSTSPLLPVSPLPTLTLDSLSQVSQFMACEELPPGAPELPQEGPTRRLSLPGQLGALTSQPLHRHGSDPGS
structure (smiles),measurement,setting,value
COc1cc(N2CC[C@@H](Oc3ccc(N4N=C(C(F)(F)F)[C@@H](C)[C@@H]4CC(=O)O)cc3)[C@H](C)C2)c(Cl)cn1,half-life,[1],3.1 h
same,Cmax,[2],3500 nM
same,half-life,[3],4 h
same,Cmax,[4],1200 nM
same,Tmax,[5],0.8 h
same,Cmax,[6],1400 nM
same,Activity,Mus musculus [7],Active
same,Activity,Mus musculus [8],Active
same,Activity,Mus musculus [9],Active
same,inhibition (INH),[10],Not Active
same,Activity,Mus musculus [11],Non-Toxic
